The values below come from ChEMBL document CHEMBL2010697, “Fragment based drug discovery: practical implementation based on ¹⁹F NMR spectroscopy” (J Med Chem, 2012).

As usually defined, the Kd is the equilibrium constant for the complex coming apart.

Some results are limits rather than exact numbers.

The target of assay [1] is T1, Beta-secretase 1 (Homo sapiens, UniProt P56817). As to the kind of experiment: Binding affinity to BACE1 by surface plasmon resonance method.
Assay [2] concerns the target T1, Beta-secretase 1. As to the kind of experiment: Binding affinity to BACE1 by NMR-based differential chemical shift perturbation method.

T1 sequence (P56817 whole entry): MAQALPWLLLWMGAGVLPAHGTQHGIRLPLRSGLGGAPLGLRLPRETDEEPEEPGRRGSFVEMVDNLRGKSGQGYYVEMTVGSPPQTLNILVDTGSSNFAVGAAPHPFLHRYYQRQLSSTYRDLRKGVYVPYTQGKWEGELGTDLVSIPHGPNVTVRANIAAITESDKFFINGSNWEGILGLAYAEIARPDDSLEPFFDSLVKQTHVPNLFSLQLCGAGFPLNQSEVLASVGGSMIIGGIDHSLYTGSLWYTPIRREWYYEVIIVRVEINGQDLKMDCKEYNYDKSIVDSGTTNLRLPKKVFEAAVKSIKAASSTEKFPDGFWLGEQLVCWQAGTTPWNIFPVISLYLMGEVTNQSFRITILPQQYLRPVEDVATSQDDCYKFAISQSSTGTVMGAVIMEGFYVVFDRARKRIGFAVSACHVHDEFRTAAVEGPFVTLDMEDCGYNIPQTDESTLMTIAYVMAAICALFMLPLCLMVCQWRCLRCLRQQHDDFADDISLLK

With `NC1=Nc2ccccc2Sc2cccc(F)c21`, the Kd on Beta-secretase 1 [1] was 325 µM; at Beta-secretase 1 [2] it was 400 µM. Regarding `Nc1ccc2cc(-c3ccccc3F)ccc2n1`, the Kd on Beta-secretase 1 [1] was found to be 39 µM. `Nc1ccc2cc(C(F)(F)F)ccc2n1` registered a Kd on Beta-secretase 1 [1] of 3900 µM. With `O=C(NC1CCCCC1)C(F)(F)F`, the Kd at Beta-secretase 1 [2] is > 1000 µM. At Beta-secretase 1 [1], `Nc1cc(C(F)(F)F)c2ccccc2n1` had a dissociation constant Kd of 2900 µM. `Cc1ccc2nc(N)ccc2c1` yielded a Kd at Beta-secretase 1 [1] of 1600 µM.

In the case of `Nc1ccc2cc(F)ccc2n1`, the Kd at Beta-secretase 1 [1] worked out at 1280 µM; on Beta-secretase 1 [2] it was 1000 µM. As to `Fc1cccc(C2NCCc3sccc32)c1` (racemic), the results for the Kd on Beta-secretase 1 [1] and at Beta-secretase 1 [2] were > 2000 µM and > 1000 µM, respectively. `Cc1cc(N)nc2ccccc12` showed an equilibrium dissociation constant (Kd) at Beta-secretase 1 [1] of 1300 µM.

Take `N=C(N)SCc1c(F)cccc1Cl`: the Kd at Beta-secretase 1 [1] was found to be 300 µM; on Beta-secretase 1 [2], 350 µM. The matching figures for `Fc1cccc(Cl)c1CN1CCNCC1`: > 2000 µM and > 1000 µM. The matching figures for `Nc1ccc2cc(-c3ccccc3C(F)(F)F)ccc2n1`: 200 µM and 200 µM.
